Tests used:
Format in all cases: physicochemical
[1] = Aqueous solubility with pH measurement; details: water, 25° C., 24 hours; hydrochloride
Method: Each sample was suspended in 0.25 ml of solvent (water) in an amount effective to produce a maximum final concentration of greater than or equal to about 10 mg/ml of the parent free form of the compound (i.e., adding excess sample to account for the weight of the salt). […] The filtrate was then diluted down 101 times.

[2] = Gravimetric vapor sorption (GVS)
Method: GVS was used to determine the amount of water adsorbed by a sample. Briefly, samples were run on a Hiden IGASorp moisture sorption analyzer running CFRSorp software. Sample sizes were typically 10 mg. A moisture adsorption desorption isotherm was performed as outlined below in Table 3 (2 scans giving 1 complete cycle). Samples were loaded/unloaded at typical room humidity and temperature (40% RH, 25° C.). Samples were then analyzed by XRPD after GVS analysis, e.g., to determine whether any structural changes took place after adsorption of water. The standard isotherm was performed at 25° C. at 10% RH intervals over a 0-90% RH range.

[3] = Storage at 40° C./75% RH under ambient light (XRPD, HPLC purity, colour)
Method: (§1) Purity analysis was performed on an Agilent HP1100 system equipped with a diode array detector and using Chemstation V9 software. Gradient, Reverse Phase methods (duration approximately 40 minutes) were used in a HPLC1 system. A Thermo-Electron Corporation HyPurity C18 5 um 150×4.6 mm column was used at 25° C. Test samples were made-up of 0.2 mg/ml of the compound in acetonitrile:water (1:1 v/v). 10 μl of sample was injected into the column. The flow rate through the column was 1 ml/min and the detection wavelength, bandwidth was 254,8 nm. Phase A was 0.1% phosphoric acid in water and Phase B was 0.1% phosphoric acid in acetonitrile. The mobile phase timetable is shown below in Table 2.
Form I was characterized by pKa, LogP, LogPion and LogD determination and prediction, XRPD before and after storage at 40° C./75% RH for 4 weeks, PLM, DSC and TGA, ^1HNMR, solubility in water with pH measurement, HPLC purity before and after storage at 40° C./75% RH for 4 weeks, water content, GVS with XRPD and purity analysis after measurement, and VT-XRPD.
Form II has been characterized using XRPD before and after storage at 40° C./75% RH for 3 weeks, PLM, DSC and TGA, Solubility in water with pH measurement, HPLC purity, Water content, GVS with XRPD analysis after measurement, and VT-XRPD.

[4] = Accelerated light stability study (Atlas Suntest CPS+ light box)
Method: as §1
Accelerated Light stability experiments were conducted using an Atlas Suntest CPS+light box. The light exposure was set to 550 W/m^2 and the run time was set to 168 hours (1 week). The chamber temperature and black standard temperature (which indicates how hot the test samples will become) were set to 25° C. The actual temperature in the sample chamber was 40° C.
Form I and II were assessed using an Atlas Suntest CPS+ light box to determine the effect of their exposure to light over a period of 168 hours (1 week). The light exposure was set to 550 W/M^2. Samples were weighed into either open weighing boats covered by pyrex glass beakers, glass vials with open tops (no lid), or glass vials covered in Aluminum foil. In all instances, the material was spread out into an even, thin layer.

[5] = Variable temperature XRPD (VT-XRPD); details: 25° C. to 245° C., then cooled to 30° C.
Method: Samples run under ambient conditions were prepared as flat plate specimens using powder without grinding unless otherwise stated. Approximately 1-2 mg of the sample was lightly pressed on a glass slide to obtain a flat surface. Samples run under non-ambient conditions (VT-XRPD) were mounted on a silicon wafer with heat conducting compound. The sample was then heated to the appropriate temperature at about 20° C./minute and subsequently held isothermally for about 1 minute before data collection was initiated.
Three samples were studied using variable temperature XRPD (VT-XRPD): Form I as received, substantially pure Form I as prepared in Example 3, and substantially pure Form II as prepared in Example 3. VT-XRPD studies were initially carried out on substantially pure Form I as prepared in Example 3 with measurements at 25° C., 50° C., 80° C., 150° C., 220° C., 225° C., 250° C. and cooling to 29° C. Prior to measurement of the last XRPD pattern, the material was crushed due to the growth of large crystals. An overlay of the XRPD patterns can be found in FIG. 4A.
An experiment was also carried out on Form I as received, with measurements at 26° C., 50° C., 150° C., 200° C., 210° C., 220° C., 230° C. and cooling to 27° C. An overlay of the XRPD patterns can be found in FIG. 4B. […] (see peak at ˜14.7 2θ). […]

For `Cc1cc2c(-c3ccccc3F)nc(N3CCNCC3)nc2s1.Cl` [Form II, 4-(2-fluorophenyl)-6-methyl-2-(piperazin-1-yl)thieno[2,3-d]pyrimidine hydrochloride], the “Aqueous solubility (free base equivalent)” value [1] was 1600 µg/mL, the “pH of the solubility sample” value [1] was 6.39 and the “XRPD reanalysis after GVS” value ([2]; after one adsorption/desorption cycle) was “did not show any change”. For the same molecule, the GVS weight increase ([2]; between 0 and 40% RH) was 1.4%, the “GVS weight increase, equivalent water” value ([2]; between 0 and 40% RH) was 0.29 moles of water and the “GVS weight increase, equivalent water” value ([2]; between 0 and 90% RH) was 0.39 moles of water. For the same molecule, the “GVS total weight increase” value ([2]; between 0 and 90% RH, single cycle, 25° C., hydrochloride) was 1.9%, the “Colour of material surface after storage” value ([3]; 3 weeks at 40° C./75% RH, ambient light) was “had not changed color” and the XRPD after storage ([3]; 40° C./75% RH for 4 days, samples from acetone and acetonitrile) was “remained unchanged”. The “XRPD pattern after storage” value ([3]; 40° C./75% RH for three weeks) was “unchanged”, the “HPLC purity after storage” value ([3]; three weeks at 40° C./75% RH) was 100% and the “Rate of degradation relative to Form I” value ([4]; 1 week at elevated light levels) was “about half the rate of Form I”. The “Purity after 1 week light exposure” value ([4]; 20 ml glass vial covered in Al foil with loose lid (control)) was 99.9, the “Purity after 1 week light exposure” value ([4]; 20 ml glass vial, 550 W/m^2, 168 hours, hydrochloride) was 90.7 and the “HPLC purity after accelerated light study” value ([4]; one week, FIGS. 6A/6B (open weighing boats), hydrochloride) was 88.3%. For the same molecule, the “Purity after 1 week light exposure” value ([4]; open weighing boat, 550 W/m^2, 168 hours, hydrochloride) was 88.3 and the “Form on heating (VT-XRPD)” value [5] was “remained as Form II throughout the experiment”.

Reference: patent US20070254891A1, “Crystalline forms of 4-(2-fluorophenyl)-6-methyl-2-(piperazin-1-yl)thieno[2,3-d]pyrimidine” (Dynogen Pharmaceuticals, Inc., priority 2006, published 2007)
